Data as given in publication PMC8482877 (Biochemical and biophysical research communications, 2020).

Columns and labels:
[1] = Solubilization of DMPC lipid vesicles by peptides; type: physicochemical; conditions: DMPC vesicles 1 mg/mL in PBS, peptide 0.1 mg/mL, 24 °C, 660 nm
[2] = system: BHK cells expressing ABCA1; experiment: Radiolabeled cholesterol efflux from ABCA1-BHK cells; type: cell-based; conditions: [3H]-cholesterol transferred from ABCA1-BHK cells to serum free medium containing peptides over 18 h; triplicates

## VLESFKVSFLSALEEYTKKLNT
[1]
  DMPC vesicle solubilization, comparison between peptides: less effective than the other active peptides
[2]
  ABCA1-mediated cholesterol efflux: almost completely inactive
